Source: patent US6716628B2, “Chondrogenesis promoters and indolin-2-one derivatives” (Chugai Seiyaku Kabushiki Kaisha, priority 1999, dated 2004)

How the values were obtained:
[1] = tested on: rat primary culture articular chondrocytes; test: Uptake of 35S-labeled sulfuric acid into glycosaminoglycan (cartilage matrix synthesis); assay type: cell-based; conditions: 10 μmol/L of compound, vs ethanol 1% final concentration control solvent
Source text: (§1) Articular chondrocytes were trimmed from the femoral knee joint of 6-week-old male SD rats (Nihon SLC Corp.) using a scalpel, and then digested in 0.3% collagenase (WORTHINGTON Corp.) and cultivated (Calcif. Tissue Int. 19:179-187,1975).
The isolated articular chondrocytes were used to measure glycosaminoglycan synthesis in the cartilage matrix by measurement of the uptake of ^35S-labeled sulfuric acid (Amersham Co., Ltd.) into glycosaminoglycan. Specifically, the articular chondrocytes were cultured in a 96-well cell culturing plate (FALCON Corp.) to a cell density of 10,000 per well. […]
When the chondrocytes reached confluency, the medium was exchanged with one having a serum concentration of 0.3% and culturing was carried out overnight, after which the medium was exchanged with the same type also containing 10 μmol/L of compound A, and then after 3 hours, ^35S-labeled sulfuric acid (Amersham Co., Ltd.) was added at 0.5 μCi per well and culturing was carried out for 24 hours. […] The sample was then filtered with glass fiber filter paper (Toyo Filter Paper Corp.), the filter paper was washed 3 times with 2 mL of 1% cetylpyridinium chloride (20 mmol/L), one each was placed in a liquid scintillation counting vial (PACKARD Corp.), 10 mL of scintillator (Nacalai Tesque Corp.) was poured in, and the radioactivity was measured with a liquid scintillation counter (PACKARD Corp.).

[2] = tested on: rat primary culture articular chondrocytes; test: Uptake of 3H-labeled thymidine (cell growth); assay type: cell-based; conditions: 10 μmol/L of compound, vs control solvent
Experimental: as §1
Uptake of ^3H-labeled thymidine (Amersham Corp.) was measured to determine the cell growth. For the measurement, the isolated articular chondrocytes were cultured in a 96-well cell culturing plate (FALCON Corp.) to a cell density of 10,000 per well. The medium used was an equivalent mixture of Dulbecco MEM containing fetal bovine serum (final concentration: 10%), 100 U/mL of penicillin (Meiji Seika Co., Ltd.) and 100 μg/mL of streptomycin (Banyu Pharmaceutical Corp.), and Ham F-12 medium (both by GIBCO Corp.). After 60-70% of the cells reached confluency, the medium was exchanged with one having a fetal bovine serum concentration of 0.3% and culturing was carried out overnight. On the following day, the medium was exchanged with the same type also containing compound A at a final concentration of 0.1, 1.0 or 10 μmol/L and 0.3% fetal bovine serum. […] The filter paper was soaked with plastic scintillator (Wallac Corp.), and the radioactivity was measured with a scintillation counter (Wallac Corp.). […]

[3] = tested on: healthy rats (auricula, trachea, sternum, femoral/crural knee joint, lumbar spine disk cartilage); test: Chondrogenesis promoting effect with oral administration to healthy rats; assay type: in vivo, rat; conditions: oral 2 g/kg/day for 4 weeks, 6-week-old male SD rats, vs 3% gum Arabic vehicle; histology
Source text: “Compound A” obtained in Synthesis Example 1 above was suspended in a 3% gum Arabic solution and orally administered to 6-week-old male SD rats (Nihon SLC Corp./Nihon Charles River Corp.) at a dosage of 2 g/kg/day for 4 weeks.
Each rat was then autopsied, the auricula, trachea, sternum, femoral/crural knee joint and lumbar spine (disk) were immersed for one week in 20% neutral buffer formalin (Wako Pure Chemical Industries, Co., Ltd.) and fixed, the sternum, femoral/crural knee joint and lumbar spine (disk) were then demineralized for 2 weeks with a 20% EDTA-4Na solution (pH 7.4, Wako Pure Chemical Industries), and observation sites were trimmed with a razor (Feather Co., Ltd.). Observation sites were trimmed from the auricula and trachea with a razor without demineralization.
Each of the trimmed tissue samples was prepared into a paraffin embedded block using an automatic embedding apparatus (Sakura Corp.) and paraffin (equivalent mixture of products by Kokusan Kagaku Corp. and Fisher Scientific Corp.). Here, a paraffin automatic dispensing embedding center (Miles Scientific Corp.) was used to fix each paraffin block in a tissue sample cassette (TISSUE-TEK Corp.)
The paraffin block was cut into 2 μm-thick sections using a microtome (Daiwa Optical Instruments Corp.) and microtome knife (Feather Co., Ltd.), and then attached onto slide glass (Matsunami Glass Corp.) and dried. […]

[4] = tested on: rat knee joints; test: Chondrogenesis promoting effect with administration into rat knee joints; assay type: in vivo; conditions: 1 mmol/L, 50 μL per day into right knee joint for 3 weeks
Experimental: A 27G injection needle and 1 mL syringe (both by Terumo Corp.) were used to administer 1 mmol/L of “compound A” (dissolved in 50% DMSO dimethylsulfoxide)-physiological saline solution; DMSO by Junsei Chemical Corp., physiological saline by Otsuka Pharmaceutical Corp.) into the right knee joint of 10-week-old male SD rats (Nihon Charles River Corp.) at a dosage of 50 μL per day for 3 weeks.
Another test group was administered 50% DMSO-physiological saline (by Junsei Chemical Corp. and Otsuka Pharmaceutical Corp., respectively) in the same manner as a vehicle control.
After 3 weeks of daily administration, the rats were autopsied, and the distance between lateral and medial attachment sites of collateral ligament of the right femur was measured with calipers (Mitsutoyo Corp.) to determine the width of the femoral knee joint. Then, in the same manner as Example 1, tissue samples were prepared and stained with 0.3% Safranin O (Merck Co., Ltd.) and observed under a microscope (magnification: 10× object lens, product of Nihon Kogaku Corp.).

Question: With `CCOC(CN1C(=O)[C@](CC(=O)Nc2ccc(C)cc2)(NC(=O)Nc2ccc(C)cc2)c2ccccc21)OCC` [Compound A, (+)-1-(2,2-diethoxyethyl)-3-((4-methylphenyl)aminocarbonylmethyl)-3-(N′-(4-methylphenyl)ureido)indolin-2-one] as the molecule, how does the “uptake of 35S-labeled sulfuric acid” value [1] read?
Answer: significantly increased

Question: And the “uptake of 3H-labeled thymidine” value [2]?
Answer: significantly increased

Question: And the “hyaline cartilage formation (auricula, trachea, sternum, knee joint, lumbar spine disk)” value [3]?
Answer: accelerated hyaline cartilage formation in all of the organs

Question: What about the “femoral knee joint width” value ([4]; 10-week-old male SD rats, vs vehicle control) of the same molecule?
Answer: significantly larger

Question: And the “histological observation of femoral knee joint (Safranin O)” value ([4]; rats)?
Answer: Safranin O-positive accelerated formation of cartilage tissue
